This series deals with P2RX3. In words: reporter assay of Huesken 2005. Particulars: siRNA.

Data on 49 substances can be found in the OligoGym collection.

Oligonucleotides are written 5' to 3', each unit as a sugar letter and its base; * is a phosphorothioate linkage, no mark a phosphodiester; rarer units and linkages stand in square brackets, end groups in braces. Plain capitals give the bases only. d = 2'-deoxy (DNA); r = 2'-OH (RNA)
Also: test concentration or dose not given here.

With “sense rArGrGrUrGrGrArCrArCrArGrUrGrGrArArArCdTdT / antisense rGrUrUrUrCrCrArCrUrGrUrGrUrCrCrArCrCrUdCdC”, the normalised inhibition (eCFP-eYFP dual reporter) worked out at 91.4%.
To “sense rCrGrCrCrArCrCrUrCrArGrGrGrCrArCrCrUrCdTdT / antisense rGrArGrGrUrGrCrCrCrUrGrArGrGrUrGrGrCrGdTdC” belongs 13%; to “sense rUrCrArCrUrArUrUrUrUrCrArUrCrArArGrArAdTdT / antisense rUrUrCrUrUrGrArUrGrArArArArUrArGrUrGrAdAdG”, 79.6%; to “sense rCrGrCrGrGrCrUrUrUrGrArCrCrArArCrCrCrAdTdT / antisense rUrGrGrGrUrUrGrGrUrCrArArArGrCrCrGrCrGdAdT”, 84.4%.
The result for “sense rUrCrCrUrGrCrUrCrArArCrUrUrCrCrUrCrArAdTdT / antisense rUrUrGrArGrGrArArGrUrUrGrArGrCrArGrGrAdTdG” reads 90.3%.
The result for “sense rCrUrCrGrArCrArGrCrGrUrUrUrCrUrGrArGrAdTdT / antisense rUrCrUrCrArGrArArArCrGrCrUrGrUrCrGrArGdCdC” reads 64.2%; that for “sense rArCrGrCrCrArCrCrUrCrArGrGrGrCrArCrCrUdTdT / antisense rArGrGrUrGrCrCrCrUrGrArGrGrUrGrGrCrGrUdCdA”, 8.6%; that for “sense rCrGrCrArCrCrCrUrCrCrUrGrArArGrGrCrUrUdTdT / antisense rArArGrCrCrUrUrCrArGrGrArGrGrGrUrGrCrGdGdT”, 67.9%.
Consider “sense rArArUrCrArGrArUrGrCrArArGrGrArUrUrCrUdTdT / antisense rArGrArArUrCrCrUrUrGrCrArUrCrUrGrArUrUdTdT”, for which the normalised inhibition (eCFP-eYFP dual reporter) amounted to 79.2%.
To “sense rCrGrGrCrUrCrGrArCrArGrCrGrUrUrUrCrUrGdTdT / antisense rCrArGrArArArCrGrCrUrGrUrCrGrArGrCrCrGdGdG” belongs 86%.
To “sense rGrArArArCrGrCrCrCrArUrCrArUrGrArUrGrGdTdT / antisense rCrCrArUrCrArUrGrArUrGrGrGrCrGrUrUrUrCdCdA” belongs 48.7%.
Regarding “sense rArCrUrCrCrUrUrCrArCrCrCrGrGrCrUrCrGrAdTdT / antisense rUrCrGrArGrCrCrGrGrGrUrGrArArGrGrArGrUdAdT”, the normalised inhibition (eCFP-eYFP dual reporter) was found to be 80.2%.
To “sense rCrCrGrGrCrUrCrGrArCrArGrCrGrUrUrUrCrUdTdT / antisense rArGrArArArCrGrCrUrGrUrCrGrArGrCrCrGrGdGdT” belongs 98%; to “sense rGrArGrArArArArGrCrArGrCrGrUrGrUrCrCrCdTdT / antisense rGrGrGrArCrArCrGrCrUrGrCrUrUrUrUrCrUrCdAdG”, 68.3%; to “sense rUrCrCrUrCrArCrUrGrGrCrCrGrCrUrGrCrGrUdTdT / antisense rArCrGrCrArGrCrGrGrCrCrArGrUrGrArGrGrAdTdC”, 16.4%.
To “sense rUrArArCrCrArArGrGrUrGrArArGrGrGrCrUrCdTdT / antisense rGrArGrCrCrCrUrUrCrArCrCrUrUrGrGrUrUrAdCdC” belongs 16.2%; to “sense rCrUrGrArUrUrArCrGrUrGrArCrGrCrCrArCrCdTdT / antisense rGrGrUrGrGrCrGrUrCrArCrGrUrArArUrCrArGdAdC”, 50%; to “sense rArGrUrCrGrGrUrGrGrUrUrGrUrGrArArGrArGdTdT / antisense rCrUrCrUrUrCrArCrArArCrCrArCrCrGrArCrUdTdG”, 64.9%.
The result for “sense rArUrCrArArGrArArCrArGrCrArUrCrCrGrUrUdTdT / antisense rArArCrGrGrArUrGrCrUrGrUrUrCrUrUrGrArUdGdA” reads 70.6%; that for “sense rGrGrCrCrUrUrUrArCrUrUrCrUrGrUrGrGrGrAdTdT / antisense rUrCrCrCrArCrArGrArArGrUrArArArGrGrCrCdGdC”, 80.2%.
Take “sense rCrArArGrGrArUrUrCrUrGrCrCrCrArGrArGrAdTdT / antisense rUrCrUrCrUrGrGrGrCrArGrArArUrCrCrUrUrGdCdA”: the normalised inhibition (eCFP-eYFP dual reporter) amounted to 102%.
The result for “sense rUrGrGrUrGrCrCrCrCrArCrGrGrArGrGrUrGrGdTdT / antisense rCrCrArCrCrUrCrCrGrUrGrGrGrGrCrArCrCrAdGdC” reads 13.5%; that for “sense rGrGrCrCrGrArCrCrArGrUrArCrArArArGrCrCdTdT / antisense rGrGrCrUrUrUrGrUrArCrUrGrGrUrCrGrGrCrCdCdC”, 68%.
As for “sense rGrUrArCrCrGrCrArCrCrCrUrCrCrUrGrArArGdTdT / antisense rCrUrUrCrArGrGrArGrGrGrUrGrCrGrGrUrArCdTdC”, the normalised inhibition (eCFP-eYFP dual reporter) was found to be 37.1%.
As for “sense rUrGrArCrArGrCrCrArGrGrGrArCrArUrGrArAdTdT / antisense rUrUrCrArUrGrUrCrCrCrUrGrGrCrUrGrUrCrAdGdG”, the normalised inhibition (eCFP-eYFP dual reporter) was found to be 90.5%.
Regarding “sense rArUrUrGrUrUrArCrUrGrArArArArUrCrArGrAdTdT / antisense rUrCrUrGrArUrUrUrUrCrArGrUrArArCrArArUdCdA”, the normalised inhibition (eCFP-eYFP dual reporter) worked out at 74.6%.
The result for “sense rArCrCrCrGrGrCrUrCrGrArCrArGrCrGrUrUrUdTdT / antisense rArArArCrGrCrUrGrUrCrGrArGrCrCrGrGrGrUdGdA” reads 94.1%; that for “sense rArCrCrUrGrUrGrArGrArUrCrCrArGrGrGrCrUdTdT / antisense rArGrCrCrCrUrGrGrArUrCrUrCrArCrArGrGrUdCdC”, 50.2%.
With “sense rUrCrGrGrUrCrUrUrUrGrUrCrArUrCrArUrCrAdTdT / antisense rUrGrArUrGrArUrGrArCrArArArGrArCrCrGrAdGdG”, the normalised inhibition (eCFP-eYFP dual reporter) is 72.8%.
The result for “sense rArCrUrUrUrGrUrArGrGrGrUrGrGrGrUrUrUrUdTdT / antisense rArArArArCrCrCrArCrCrCrUrArCrArArArGrUdAdG” reads 89.4%; that for “sense rGrGrGrCrArUrUrArArGrArUrCrGrGrCrUrGrGdTdT / antisense rCrCrArGrCrCrGrArUrCrUrUrArArUrGrCrCrCdAdG”, 59.7%.
To “sense rUrGrCrCrGrCrUrUrCrCrArCrCrCrGrGrArCrAdTdT / antisense rUrGrUrCrCrGrGrGrUrGrGrArArGrCrGrGrCrAdGdG” belongs 93.7%.
As to “sense rCrGrUrGrArArCrUrArCrArGrCrUrCrUrGrUrGdTdT / antisense rCrArCrArGrArGrCrUrGrUrArGrUrUrCrArCrGdCdA”, the normalised inhibition (eCFP-eYFP dual reporter) is 42%.
To “sense rUrGrUrCrUrGrArUrUrArCrGrUrGrArCrGrCrCdTdT / antisense rGrGrCrGrUrCrArCrGrUrArArUrCrArGrArCrAdCdA” belongs 43.1%; to “sense rCrUrArCrGrCrCrArArCrArGrArGrUrCrArUrGdTdT / antisense rCrArUrGrArCrUrCrUrGrUrUrGrGrCrGrUrArGdAdG”, 53.4%; to “sense rUrUrUrGrCrCrArArArCrUrGrGrCrGrCrGrCrAdTdT / antisense rUrGrCrGrCrGrCrCrArGrUrUrUrGrGrCrArArAdAdT”, 37.3%.
To “sense rArCrCrArUrCrGrGrGrArUrCrArUrCrArArCrCdTdT / antisense rGrGrUrUrGrArUrGrArUrCrCrCrGrArUrGrGrUdCdC” belongs 25.1%; to “sense rArGrArCrUrArCrGrCrUrGrArArArArUrCrGrCdTdT / antisense rGrCrGrArUrUrUrUrCrArGrCrGrUrArGrUrCrUdCdA”, 77.1%.
To “sense rGrCrUrCrCrGrGrArCrUrCrUrArCrGrCrCrArAdTdT / antisense rUrUrGrGrCrGrUrArGrArGrUrCrCrGrGrArGrCdCdC” belongs 87.3%; to “sense rGrCrGrGrGrUrArGrGrGrGrArCrGrUrGrGrUrCdTdT / antisense rGrArCrCrArCrGrUrCrCrCrCrUrArCrCrCrGrCdAdA”, 37.2%.
In the case of “sense rUrUrCrArGrCrUrUrCrUrGrArUrCrArUrCrUrCdTdT / antisense rGrArGrArUrGrArUrCrArGrArArGrCrUrGrArAdCdT”, the normalised inhibition (eCFP-eYFP dual reporter) stood at 46.8%.
For “sense rUrGrCrArUrCrCrCrCrArArArUrArCrUrCrCrUdTdT / antisense rArGrGrArGrUrArUrUrUrGrGrGrGrArUrGrCrAdCdT”, the normalised inhibition (eCFP-eYFP dual reporter) was determined as 56.3%.
The result for “sense rCrUrUrCrCrCrArArCrCrUrGrArCrArGrCrCrAdTdT / antisense rUrGrGrCrUrGrUrCrArGrGrUrUrGrGrGrArArGdGdA” reads 66.3%; that for “sense rCrCrArCrCrUrCrArGrGrGrCrArCrCrUrCrGrGdTdT / antisense rCrCrGrArGrGrUrGrCrCrCrUrGrArGrGrUrGrGdCdG”, 70.2%; that for “sense rCrArGrGrCrUrArCrArArCrUrUrCrArGrGrUrUdTdT / antisense rArArCrCrUrGrArArGrUrUrGrUrArGrCrCrUrGdGdG”, 95.5%.
Consider “sense rGrCrArCrCrUrCrGrGrUrCrUrUrUrGrUrCrArUdTdT / antisense rArUrGrArCrArArArGrArCrCrGrArGrGrUrGrCdCdC”, for which the normalised inhibition (eCFP-eYFP dual reporter) amounted to 85.9%.
To “sense rArCrUrUrCrArCrUrArUrUrUrUrCrArUrCrArAdTdT / antisense rUrUrGrArUrGrArArArArUrArGrUrGrArArGrUdTdC” belongs 92.9%.
The result for “sense rArCrArGrCrUrCrUrGrUrGrCrUrCrCrGrGrArCdTdT / antisense rGrUrCrCrGrGrArGrCrArCrArGrArGrCrUrGrUdAdG” reads 59.2%.
The result for “sense rCrUrUrUrArCrUrUrCrUrGrUrGrGrGrArGrUrGdTdT / antisense rCrArCrUrCrCrCrArCrArGrArArGrUrArArArGdGdC” reads 67.7%.
